Columns and labels:
HNF-4α [1] = target: T1, HNF-4α (Rattus norvegicus, UniProt P22449); test: Ligand binding assay with [3H]palmitoyl(16:0)-CoA on recombinant GST-HNF-4α(LBD) or His-HNF-4α; details: for EC50: competition with 8 nM [3H]palmitoyl(16:0)-CoA, read-out: EC50 (50% specific competition)
T1 construct: GST-HNF-4α(LBD) fusion protein consisting of amino acids 96-455 of wild type HNF-4α fused to GST; fused on or other part: Glutathione-S-transferase (GST) at the N-terminus of the LBD construct; 6-histidine tag on the full-length construct
T1 sequence (P22449 105-464 isoform P22449-2 limits assumed): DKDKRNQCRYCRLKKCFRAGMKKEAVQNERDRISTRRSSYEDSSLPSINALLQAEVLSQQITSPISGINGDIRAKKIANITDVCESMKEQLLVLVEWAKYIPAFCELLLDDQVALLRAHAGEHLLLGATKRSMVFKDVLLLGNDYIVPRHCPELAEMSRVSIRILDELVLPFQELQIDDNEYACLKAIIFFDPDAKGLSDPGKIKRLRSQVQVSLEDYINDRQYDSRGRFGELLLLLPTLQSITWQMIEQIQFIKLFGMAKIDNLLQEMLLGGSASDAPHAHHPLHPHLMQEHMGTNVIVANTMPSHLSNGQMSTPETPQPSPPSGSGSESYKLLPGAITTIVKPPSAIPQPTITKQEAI
Procedure: a. […] The respective recombinant proteins are incubated to equilibrium with [^3H]palmitoyl(16:0)-CoA (0.05 μCi) and with increasing nonlabeled palmitoyl(16:0)-CoA as indicated.
b. […] The respective recombinant proteins are incubated with 8 nM of [^3H]palmitoyl(16:0)-CoA (60 Ci/mmol) and with increasing nonlabeled myristoyl(14:0)-CoA as indicated. Percent bound refers to radiolabeled [^3H]palmitoyl(16:0)-CoA in the bound fraction. […] Percent bound refers to radiolabeled [^3H]palmitoyl(16:0)-CoA in the bound fraction.
Rat HNF-4α1 cDNA(pLEN4S)^1 was subcloned into the glutathione-S-transferase (GST) encoding pGEX-2T plasmid (Pharmacia) and the resultant plasmid was cleaved with smaI and AccI and religated to yield the GST-HNF-4α(LBD) fusion plasmid. […] The full length HNF-4α1 cDNA cloned into 6His-pET11d vector was expressed in E.coli BL21 (DE3)plysS.
Recombinant GST-HNF-4α(LBD) (100 pmol) or His-HNF-4α (100 pmol) were incubated for 60 min at 22° C. with [^3H]palmitoyl(16:0)-CoA (American RadiolabeledChemicals) in 100 μl of 10 mM phosphate buffer (pH 7.4). Competitor ligands or solvent carrier were added as indicated. Free and HNF-4α bound ^3[H]palmitoyl(16:0)-CoA were separated by […] and bound ligand was quantified by liquid scintillation counting. Nonspecific binding of [^3H]palmitoyl(16:0)-CoA was determined by its binding to the GST moiety or to carbonic anhydrase as nonrelevant protein.
Binding was exemplified with either the ligand binding domain of HNF-4α fused to glutathione-s-transferase (GST-HNF-4α(LBD)) or the full length HNF-4α protein tagged by 6 histidines (His-HNF-4α).

HNF-4α [2] = target: T2, HNF-4α (Rattus norvegicus, UniProt P22449); test: Gel mobility shift assay: His-HNF-4α binding to C3P apo CIII promoter oligonucleotide; type: biochemical; set-up: The full length HNF-4α1 cDNA cloned into 6His-pET11d vector was expressed in E.coli BL21 (DE3)plysS; 6His; made in house; host or cells: E. coli BL21 (DE3)plysS; details: for direct effect on HNF-4α (summary): summary statement of Example 4
T2 sequence (P22449 1-464 isoform P22449-2): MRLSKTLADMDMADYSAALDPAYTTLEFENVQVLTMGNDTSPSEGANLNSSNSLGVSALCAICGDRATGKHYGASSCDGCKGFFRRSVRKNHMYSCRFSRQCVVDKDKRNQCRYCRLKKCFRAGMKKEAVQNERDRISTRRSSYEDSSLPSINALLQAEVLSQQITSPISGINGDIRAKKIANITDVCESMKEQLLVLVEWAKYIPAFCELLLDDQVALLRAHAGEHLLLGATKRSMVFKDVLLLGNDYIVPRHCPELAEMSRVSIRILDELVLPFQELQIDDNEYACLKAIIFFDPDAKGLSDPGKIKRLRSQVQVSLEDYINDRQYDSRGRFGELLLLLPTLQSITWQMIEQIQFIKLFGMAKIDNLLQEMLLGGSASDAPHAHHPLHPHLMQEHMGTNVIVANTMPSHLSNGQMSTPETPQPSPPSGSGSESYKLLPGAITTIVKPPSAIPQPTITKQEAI
Procedure: a. His-HNF-4I (14 ng) binding to C3P in the absence (lane 1) or presence of 10 μM each of myristoyl(14:0)-CoA (lane 2) or palmitoyl(16:0)-CoA (lane 3).
b. His-HNF-4I (20 ng) binding to C3P in the absence (lane 1) or presence of 10 μM each of stearoyl(18:0)-CoA (lane 2) or linolenoyl(18:3, w-3)-CoA (lane 3).
c. Activation of His-HNF-4I (14 ng) binding to C3P by increasing concentrations of myristoyl(14:0)-CoA. The gel section containing radiolabeled C3P bound to His-HNF-4I dimer is shown.
His-HNF-4α and acyl-CoA (as indicated) were preincubated for 30 min at 22° C. in 11 mM Hepes (pH 7.9) containing 50 mM KCl, 1 mM dithiothreitol. 2.5 mM MgCl2, 10% glycerol, 1 μg of poly(dI-dC) in a final volume of 20 μl. ^32P-labeled oligonucleotide (0.1 ng) consisting of the human C3P apo CIII promoter sequence,(−87/−66)^6 was then added, and incubation was continued for an additional 15 min. Protein-DNA complexes were resolved by 5% nondenaturing polyacrylamide gel in 0.6×TBE and quantitated by PhosphorImager analysis.
HNF-4α activity as a function of binding of long chain acyl-CoAs was evaluated by studying the binding of HNF-4α to its cognate C3P element of the apo CIII promoter sequence (−87/−66)^6 in the presence or absence of added acyl-CoAs of variable chain length, degree of saturation, and degree of substitution. Binding was verified by using a gel mobility shift assay. […] Activation was concentration dependent and maximal in the presence of myristoyl(14:0)-CoA added within a concentration range required for its binding to HNF-4α.

HNF-4α [3] = target: T2, HNF-4α; test: In vitro transcription assay induced by His-HNF-4α with HeLa nuclear extract; type: biochemical; set-up: The full length HNF-4α1 cDNA cloned into 6His-pET11d vector was expressed in E.coli BL21 (DE3)plysS; 6His; made in house; host or cells: E. coli BL21 (DE3)plysS
Procedure: a. Representative experiments showing in vitro transcription of the test template in the presence of increasing concentrations of His-HNF-4I and in the absence (lanes 1-3, 7-9) or presence of 10 μM of added palmitoyl(16:0)-CoA (lanes 4-6) or stearoyl(18:0)-CoA (lanes 10,11) as indicated. Correctly initiated transcripts of the test and control templates are denoted by (→) and ? , respectively.
b. HNF-4I-induced in vitro transcription in the absence (empty bars) or presence of 10 μM each of added palmitoyl(16:0)-CoA (filled bars) or stearoyl(18:0)-CoA (hatched bars). Fold transcription indicates the ratio of specific transcript produced by the test template over transcript from the control template normalized to the ratio observed without HNF-4a. The figure summarizes 5 independent experiments for each acyl-CoA. *-Significant as compared with the respective value in the absence of added ligand.
Reaction mixture contained 20 mM Hepes-KOH (pH 7.9), 5 mM MgCl2, 60 mM KCl, 8% glycerol, 2 mM DTT, 1 mM 3′-O-methyl-GTP, 10 units of T1RNase, 20 units of RNasin, 0.5 μg sonicated salmon sperm DNA and His-HNF-4α and test ligand as indicated. The mixture was preincubated for 30 min at 22° C. followed by adding 10 ng of pAdML200 control template consisting of the adenovirus major-late promoter (−400/+10) linked to a 200 bp G-less cassette and 200 ng of the test template consisting of three C3P copies of the apo CIII promoter sequence (−87/−66) upstream to a synthetic ovalbumin TATA box promoter in front of a 377 bp-G-less cassette. The mixture was further preincubated for 10 min at 22° C. followed by adding 40 μg of HeLa nuclear extract with additional preincubation for 30 min at 30° C. 0.5-mM ATP, 0.5 mM CTP, 25 μM UTP, and 10 μCi of [α-^32P]UTP (s.a. […], Amersham) were then added and the complete reaction mixture was incubated for 45 min at 30° C. in a final volume of 25 μl. The reaction was terminated by adding 175 μl of stop mix (0.1 M sodium acetate (pH 5.2), 10 mM EDTA, 0.1% SDS, 200 μg/ml tRNA) followed by phenol extraction and ethanol precipitation. RNA was resuspended in sample buffer containing 80% formamide and 10 mM Tris-HCl (pH 7.4) and separated on 5% polyacrylamide gel containing 7 M urea in TBE. Correctly initiated transcripts were quantitated by PhosphorImager analysis. The test DNA template was constructed by inserting into pC2AT19 plasmid a PCR-amplified oligonucleotide prepared by using the (C3P)3-TK-CAT plasmid as template and consisting of three copies of the C3P element of the Apo CIII promoter sequence (−87/−66) having an ECoRI and SSTI sites at the 5′ and 3′ ends, respectively. The resultant plasmid was cleaved with sphI and sacI and ligated to a synthetic oligonucleotide (5′-CGAGGTCCAC-[…]-3′) containing sequences of the HSV thymidine kinase promoter (−41/−29) and of the chicken ovalbumin promoter (−33/−21).
The effect of agonistic and antagonistic HNF-4α-ligands was further evaluated by analyzing the in vitro transcription rate, catalyzed by added HeLa nuclear extract and induced by recombinant HNF-4α, of a test template consisting of a 377 bp G-less cassette promoted by sequences of the HSV thymidine kinase and chicken ovalbumin promoters and enhanced by three C3P copies of the apo Clil gene promoter. Transcriptional activation by HNF-4α was evaluated in the presence and in the absence of added representative long chain fatty acyl-CoAs. […]

EC50 (HNF-4α [1]; GST-HNF-4α(LBD) or His-HNF-4α) | direct effect on HNF-4α (summary) (HNF-4α [2]) | maximal binding (HNF-4α [1]; Scatchard analysis) | binding ratio at saturation (HNF-4α [1]; at saturation (FIG. 1A)) | Kd (HNF-4α [1]; saturation binding of [3H]palmitoyl(16:0)-CoA, Scatchard analysis, GST-HNF-4α(LBD) or His-HNF-4α, read-out: dissociation constant (Kd)) | effect on HNF-4α induced in vitro transcription (HNF-4α [3]; 10 μM added acyl-CoA (FIG. 3)) | HNF-4α transcriptional activity, agonist/antagonist character (summary) (HNF-4α [3]; summary statement of Example 4) | effect on His-HNF-4α binding to C3P oligonucleotide (HNF-4α [2]; gel mobility shift, 10 μM acyl-CoA (FIG. 2)) | Compound
0.6 µM | direct inhibition | – | – | – | – | – | – | CC/C=C\C/C=C\C/C=C\C/C=C\C/C=C\CCCC(=O)SCCNC(=O)CCNC(=O)[C@H](O)C(C)(C)COP(=O)(O)OP(=O)(O)OC[C@H]1O[C@@H](n2cnc3c(N)ncnc32)[C@H](O)[C@@H]1OP(=O)(O)O [Eicosapentaenoyl(20:5)-CoA]
2.6 µM | – | 1 mol palmitoyl(16:0)-CoA/mol HNF-4I | ~1 mole of fatty acyl-CoA/mole of HNF-4α | 2.6 µM | activated | activators | – | CCCCCCCCCCCCCCCC(=O)SCCNC(=O)CCNC(=O)[C@H](O)C(C)(C)COP(=O)(O)OP(=O)(O)OC[C@H]1O[C@@H](n2cnc3c(N)ncnc32)[C@H](O)[C@@H]1OP(=O)(O)O [Palmitoyl(16:0)-CoA, reference compound]
1.6 µM | direct inhibition | – | – | – | – | – | – | CC/C=C\C/C=C\C/C=C\C/C=C\C/C=C\C/C=C\CCC(=O)SCCNC(=O)CCNC(=O)[C@H](O)C(C)(C)COP(=O)(O)OP(=O)(O)OC[C@H]1O[C@@H](n2cnc3c(N)ncnc32)[C@H](O)[C@@H]1OP(=O)(O)O [Docosahexaenoyl(22:6)-CoA]
– | direct inhibition | – | – | – | – | – | potent inhibition | CC/C=C\C/C=C\C/C=C\CCCCCCCC(=O)SCCNC(=O)CCNC(=O)[C@H](O)C(C)(C)COP(=O)(O)OP(=O)(O)OC[C@H]1O[C@@H](n2cnc3c(N)ncnc32)[C@H](O)[C@@H]1OP(=O)(O)O [Linolenoyl(18:3)-CoA]
